Results on two compounds are retold here after paper PMC7127258 (European Journal of Medicinal Chemistry, 2013).

The subject of one data set is renal papillae of rats. As to conditions: cited from earlier work.
The test system of the next data set is interferon. The following applies: rodents and cats; administered orally or intraperitoneally; cited from earlier work.
In data set [1] the test system is vesicular stomatitis virus (VSV). It counts as cell-based.

Consider `Cc1nc(N)nc(O)c1Br` [Compound 6, 2-amino-5-bromo-6-methyl-4(3H)-pyrimidinone], for which the “Toxicity upon chronic administration” value in the data set with renal papillae of rats is “toxicity-limiting crystal deposition in the renal papillae of rats”. In addition, the Interferon induction result with interferon is “reported to induce interferon”.
Take `CCCCCc1nc(N)[nH]c(=O)c1Br` [Compound 14c, 2-Amino-5-bromo-6-pentylpyrimidin-4(3H)-one]: the “EC50 vesicular stomatitis virus” value in data set [1] is reported as “anti-VSV activity was not observed in HEL cell cultures”.
